The structures appear in SMILES notation.

Experiment [1] has as its target AICARFT (Homo sapiens, UniProt P31939). The experiment can be described thus: AICARFT in vivo target inhibition (IVTI) assay, tumor xenografts (ZMP). More on the design: from tissue; host or cells: HCT-116 and NCI-H460 tumour xenografts in female athymic nude mice; species or system mouse.
Description: The in vivo effects of AICARFT inhibition on the concentrations of pathway-related analytes are determined by liquid chromatography-mass spectrometry (LC-MS) analysis of tumor xenografts. Tumor xenograft samples on dry ice are weighed on an analytical balance, transferred to 2 mL Eppendorf Safe-Lock Tube™, and placed on dry ice. An internal standard solution containing 13C5-ZMP (1000 ng/mL), 13C5-AICAr (500 ng/mL), ascorbic acid (0.1%), and formic acid (0.1%) in MeOH/DCM (80:20) is prepared and stored at 20° C. For every mg of tissue in the sample tube, 10 L of internal standard solution is added. Standard curves containing ZMP, dUMP, AICAr at concentrations of 7.6-50,000 ng/mL are prepared separately in the internal standard solution.
One 5 mm steel bead (Qiagen) is added to each sample tube and the tubes are placed on wet ice for 15 minutes. Samples are homogenized on a Qiagen TissueLyser II for 5 minutes at 15 Hz, and then centrifuged on an Eppendorf 5430R microcentrifuge for 10 minutes at 13,000 rpm and 4° C. Aliquots of each supernatant (200 μL) are removed and placed into a deep 96-well plate. Aliquots (200 μL) of each standard curve solution are also placed in a deep 96-well plate. A Beckman Biomek FX liquid handler added DCM (600 μL) and 0.1% ascorbic acid solution (200 μL) to each well. The plate is sealed, vortexed for 5 minutes, and centrifuged for 5 minutes at 4,000 rpm and 4° C. on an Eppendorf 5810R centrifuge. Aliquots (75 μL) of the top layer are transferred to a clean 96-well plate, and an additional 75 μL of 40 mM ammonium acetate, pH 4 is added to each well. The plates are sealed prior to analysis. The LC-MS method utilized a Shimadzu Prominence 20A HPLC system connected to an AB Sciex 5500™ or an AB Sciex 6500™ triple quadrupole mass spectrometer running Analyst® software.
For experiment [2], the system named is human lung carcinoma NCI-H460 mouse xenograft. Put plainly: Antitumor efficacy in NCI-H460 mouse xenograft tumor model. It counts as in vivo. Particulars: for % T/C: NCI-H460 xenograft, no folic acid, Day 20, Delta T/C, * = P<0.05. On the procedure:
In vivo studies are performed using female athymic nude mice (Harlan) with a bodyweight of 23-28 g at first measurement. Upon receipt and throughout the study, the animals are housed 5 animals per cage in appropriately sized solid-bottom cages with contact bedding. The animal room is maintained on a 12-hour light/dark cycle. Animals are acclimated for 14 days prior to implantation of the NCI-H460 or HCT-116 cells on low folate diet (Teklad 130451) ad libitum and autoclaved tap water is provided ad libitum. The HCT-116 and NCI-H460 cell line are obtained from American Type Culture Collection (ATCC) and is cultured following ATCC instructions. Cells used for implantation are harvested during log phase growth and suspended in serum-free media. The suspended cells are then diluted 1:1 with BD Matrigel Matrix (ref 354234). Cells are injected in the right flank with 5.0E+06 cells (0.2 mL cell/Matrigel suspension). Tumors are monitored beginning day 8 post implant. Animals are redistributed into groups with 5-6 animals per group utilizing proprietary randomization software when average tumor volume reaches 200 mm^3. Groups 1-12 are maintained on a low folate diet (Teklad 130451) and folic acid (Sigma F8798 Lot #SLBH0909V) administration at doses listed in the Table 19 began 28 hours prior to dose initiation and 4 hours prior to each dose. […] Tumor volume and body weight are measured 2× a week. Tumor volume is determined by caliper measurements (mm) and using the formula for an ellipsoid sphere: tumor volume (mm^3)=length×width^2/2, where length and width refer to the larger and smaller perpendicular dimensions collected at each measurement. The animal behavior and animal health are monitored daily during dosing period.
The statistical analysis of the tumor volume data begins with a data transformation to a log scale to equalize variance across time and treatment groups. The log volume data are analyzed with a two-way repeated measures analysis of variance by time and treatment using the MIXED procedures in SAS software (Version 9.3). […]

Experiment [3] concerns colorectal carcinoma HCT-116. The experiment can be described thus: Low folate in vitro proliferation assay, HCT-116. It counts as cell-based. Particulars: Homo sapiens, 168 h; HCT-116, low folate media, 7 days. From the text: (§1) Allow cells to attach overnight. […] Final concentration of compounds will be 1×. […] Dose cells with compounds of interest for 7 days. […] Determine % inhibition for each sample (see Table 18).

Experiment [4] deals with AICARFT. The experiment can be described thus: AICARFT in vivo target inhibition (IVTI) assay in mouse plasma (AICAr). On the procedure:
In vivo studies are performed using female athymic nude mice (Harlan) with a bodyweight of 23-28 g at first measurement. Upon receipt and throughout the study, the animals are housed 5 animals per cage in appropriately sized solid-bottom cages with contact bedding. The animal room is maintained on a 12-hour light/dark cycle. Animals are acclimated for 14 days prior to implantation of the NCI-H460 or HCT-116 cells on low folate diet (Teklad 130451) ad libitum and autoclaved tap water is provided ad libitum. The HCT-116 and NCI-H460 cell line are obtained from American Type Culture Collection (ATCC) and is cultured following ATCC instructions. Cells used for implantation are harvested during log phase growth and suspended in serum-free media. The suspended cells are then diluted 1:1 with BD Matrigel Matrix (ref 354234). Cells are injected in the right flank with 5.0E+06 cells (0.2 mL cell/Matrigel suspension). Tumors are monitored beginning day 8 post implant. Animals are redistributed into groups with 5-6 animals per group utilizing proprietary randomization software when average tumor volume reaches 200 mm^3. Groups 1-12 are maintained on a low folate diet (Teklad 130451) and folic acid (Sigma F8798 Lot #SLBH0909V) administration at doses listed in the Table 19 began 28 hours prior to dose initiation and 4 hours prior to each dose. Folic acid is formulated weekly in PBS and dosed via oral gavage at 0.2 mL. Groups 13-16 are placed on standard chow (Teklad 2920X) at randomization. The compound is formulated weekly in 20% HPBCD in Phosphate buffer pH 8 with one molar equivalent NaOH added. The formulated compound is administered at the doses and schedules indicated in Table 19 by oral gavage (0.2 mL). The vehicle is also given QD as the control arm of the study. Tumor volume and body weight are measured 2× a week. Tumor volume is determined by caliper measurements (mm) and using the formula for an ellipsoid sphere: tumor volume (mm^3)=length×width^2/2, where length and width refer to the larger and smaller perpendicular dimensions collected at each measurement. The animal behavior and animal health are monitored daily during dosing period.
The in vivo effects of AICARFT inhibition on the circulating concentration of AICAr is determined by liquid chromatography-mass spectrometry (LC-MS). Standard curves containing AICAr at concentrations of 1 ng/mL-2000 ng/mL are prepared in 40 mM ammonium acetate, pH 4. Plasma samples (75 μL) or standards (75 μL) are combined with 300 μL of an internal standard solution containing 13C5-AICAr (20 ng/mL) and formic acid (1%) in ACN. The samples are vortex mixed for 5 minutes and passed through a Phenomenex Phree 96-well phospholipid removal SPE plate. The eluents are collected in a 96-well plate and dried under heated nitrogen at 50° C. Each sample is reconstituted in 50 μL of 40 mM ammonium acetate, pH 4. The plates are sealed and vortexed for 5 minutes prior to analysis. The LC-MS method utilized a Shimadzu Prominence 20A HPLC system connected to an AB Sciex 5500™ or an AB Sciex 6500™ triple quadrupole mass spectrometer running Analyst® software. Extracted samples are separated using two Thermo Hypercarb™ Javelin guard columns (2.1×20 mm, 5 μm) connected in series with an injection volume of 15 μL and a flow rate of 1 mL/minute. Mobile phase A is a 95:5 mixture of 50 mM ammonium formate, pH 4 and ACN. Mobile phase B is a 70:30 mixture of ACN and MeOH spiked with 0.3% formic acid and 2% concentrated ammonium hydroxide solution (v/v). For mouse plasma samples the following gradient is used: 0 minutes, 0% B; 0.25 minutes, 0% B; 2.00 minutes, 25% B; 2.01 minutes, 95% B; 3.50 minutes, 95% B; 3.51 minutes, 0% B; 4.50 minutes, stop. For dog plasma samples the following gradient is used to remove endogenous interferences: 0 minutes, 0% B; 0.25 minutes, 0% B; 5.99 minutes, 20% B; 6.00 minutes, 95% B; 8.00 minutes, 95% B; 8.01 minutes, 0% B; 10.00 minutes, stop. […]

Experiment [5] has as its system panel of 46 cancer cell lines. The experiment can be described thus: Low folate in vitro proliferation assay, cancer cell line panel (Alamar Blue). Particulars: media conditions with folate levels similar to human plasma; summary of Table 18. In general terms: Alamar Blue is a resazurin reagent that responds to reducing activity.
Description: Supplement 500 mL Gibco folate free RPMI media (Gibco #27016-021) with 1 M Hepes (5 mL), 100 mM Na pyruvate (5 mL) and 0.5 g/mL glucose (2.5 mL) to match high folate ATCC RPMI media (ATCC #30-2001). To make complete media, both regular and folate free RPMI medias are supplemented with 10% FBS. The addition of FBS to folate free media adds low levels of folate and is now considered to be low folate media.
Transfer cells growing in high folate RPMI media (ATCC #30-2001)+10% FBS (Hyclone #SH30070.03) to low folate RPMI media and folate starve for 7 days. Wash cells grown in high folate media with PBS, trypsinize, and resuspend in low folate media. Grow cells in low folate media for 7 days making sure to seed tissue culture flasks at a density that will not exceed 80% confluence after 7 days. Wash cells in PBS, trypsinize, and resuspend in low folate media and count cells. Seed 96 well poly D lysine plate (Corning #354640) at 3000 cells/well in 100 μl low folate media. Allow cells to attach overnight. Prepare 10 mM DMSO stocks of compounds to be tested in proliferation assay. Determine concentrations to be tested and dilute compounds to 2× final concentration in low folate media. Calculate % DMSO of this solution and use this value as diluent. […] Read plates on the Envision plate reader (Perkin Elmer), or other fluorescent plate reader, with excitation at 570 nm and emission at 585 nm. […]
The test system of experiment [6] is large cell lung cancer NCI-H460. The experiment can be described thus: Low folate in vitro proliferation assay, NCI-H460. It counts as cell-based. The following applies: Homo sapiens, 168 h; NCI-H460, low folate media, 7 days.
Text: as §1

Sequence of AICARFT (Homo sapiens, UniProt P31939) (P31939 whole entry): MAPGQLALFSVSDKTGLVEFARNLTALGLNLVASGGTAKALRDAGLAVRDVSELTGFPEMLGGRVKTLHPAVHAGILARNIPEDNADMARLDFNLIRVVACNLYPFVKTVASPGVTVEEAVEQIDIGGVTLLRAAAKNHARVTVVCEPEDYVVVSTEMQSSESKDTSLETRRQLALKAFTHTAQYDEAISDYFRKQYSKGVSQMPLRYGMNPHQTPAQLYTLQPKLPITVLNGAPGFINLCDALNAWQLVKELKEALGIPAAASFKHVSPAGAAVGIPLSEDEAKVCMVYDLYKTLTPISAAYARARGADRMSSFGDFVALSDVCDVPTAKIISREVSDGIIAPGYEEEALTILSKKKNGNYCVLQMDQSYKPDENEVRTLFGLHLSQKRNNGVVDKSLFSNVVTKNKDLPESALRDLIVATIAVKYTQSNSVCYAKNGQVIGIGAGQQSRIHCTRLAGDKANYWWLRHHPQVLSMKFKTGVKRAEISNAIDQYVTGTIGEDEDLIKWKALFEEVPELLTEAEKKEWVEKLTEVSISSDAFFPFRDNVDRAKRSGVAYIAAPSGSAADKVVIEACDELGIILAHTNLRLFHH

`O=c1[nH]ccc2cc(F)c(NS(=O)(=O)c3ccc(N4CC[C@@H](O)C4)s3)cc12` [Example 1, N-(6-Fluoro-1-oxo-1,2-dihydroisoquinolin-7-yl)-5-[(3R)-3-hydroxypyrrolidin-1-yl]thiophene-2-sulfonamide]: the “Mean tumor ZMP” value in experiment [1] (HCT-116 xenograft, Group 6, low folate diet, folic acid 0.75 mg/kg (QD × 15, orally), 10 mg/kg QD × 14, orally, Day 23) was determined as 20 µM; in experiment [1] (HCT-116 xenograft, Group 7, low folate diet, folic acid 0.75 mg/kg (QD × 15, orally), 30 mg/kg QD × 14, orally, Day 23), 35 µM; in experiment [1] (HCT-116 xenograft, Group 14, standard chow, no folic acid, 10 mg/kg QD × 14, orally, Day 23), 7.0 µM; in experiment [1] (HCT-116 xenograft, Group 15, standard chow, no folic acid, 30 mg/kg QD × 14, orally, Day 23) it was 26 µM; in experiment [1] (NCI-H460 xenograft, Group 14, standard chow, no folic acid, 10 mg/kg QD × 13, orally, Day 20) it was 3.7 µM; in experiment [1] (NCI-H460 xenograft, Group 15, standard chow, no folic acid, 30 mg/kg QD × 13, orally, Day 20) it was 66 µM. Moreover, the “in vivo anticancer activity (in words)” value in experiment [2] (NCI-H460 xenograft tumors, QD continuously for 2 weeks) is given as “demonstrates in vivo anticancer activity”. Besides, the “% T/C” value was 113% in experiment [2] (Group 14, standard chow, 10 mg/kg QD × 13, orally) and 42* % in experiment [2] (Group 15, standard chow, 30 mg/kg QD × 13, orally). In addition, the IC50 was found to be 3 nM in experiment [3] and 20 nM in experiment [6]. Further, the “Mean Plasma AICAr” value came to 88 nM in experiment [4] (HCT-116 xenograft mice, Group 6, low folate diet, folic acid 0.75 mg/kg (QD × 15, orally), 10 mg/kg QD × 14, orally, Day 23); 181 nM in experiment [4] (HCT-116 xenograft mice, Group 7, low folate diet, folic acid 0.75 mg/kg (QD × 15, orally), 30 mg/kg QD × 14, orally, Day 23); 44 nM in experiment [4] (HCT-116 xenograft mice, Group 14, standard chow, no folic acid, 10 mg/kg QD × 14, orally, Day 23); 154 nM in experiment [4] (HCT-116 xenograft mice, Group 15, standard chow, no folic acid, 30 mg/kg QD × 14, orally, Day 23); 368 nM in experiment [4] (NCI-H460 xenograft mice, Group 14, standard chow, no folic acid, 10 mg/kg QD × 13, orally, Day 20); 1400 nM in experiment [4] (NCI-H460 xenograft mice, Group 15, standard chow, no folic acid, 30 mg/kg QD × 13, orally, Day 20). The “inhibition of proliferation of cancer cells (in words)” value in experiment [5] is recorded as “inhibits proliferation of cancer cells”.

Broadly, the IC50 is the point on the concentration scale where inhibition reaches its midpoint. A high value points to a need for much substance.

The values above are taken from patent publication US9776992B2, “1-oxo-1,2-dihydroisoquinolin-7-yl-(5-substituted-thiophen-2-yl)-sulfonamide compounds, formulations containing those compounds, and their use as AICARFT inhibitors in the treatment of cancers” (Eli Lilly and Company, priority 2014, dated 2017).
